Patent publication US10766865B2, “PKM2 modulators and methods for their use” (TOLERO PHARMACEUTICALS, INC., priority 2012, dated 2020)
Read-outs that look alike come from different tables or passages of the source.

Tests used:
PSN-1 = test: Cell line sensitivity (viability, ATPlite); format: cell-based; conditions: Homo sapiens, PSN1; PSN-1, Pancreatic; BME media, 72 hours; read-out: Sensitivity to Example 1 (IC50)
Procedure: (§1) Viability effect of Example 1 against a subset of lung carcinoma cell lines was determined as follows. Cells were seeded at 1500 cells per well in 384-well plates in BME media, and compound was added in 0.1% DMSO 18 hours later. Viability was determined by ATPlite assay after 72 hours. (See FIG. 4C).
(§2) Example 1 was tested against an expanded panel of cell lines according to the above procedure.

NCI-H647 = test: Cell line sensitivity (viability, ATPlite); format: cell-based; conditions: Homo sapiens; NCI-H647, Lung; BME media, 72 hours; read-out: Sensitivity to Example 1 (IC50)
Procedure: as §1, §2

786-O = test: Cell line sensitivity (viability, ATPlite); format: cell-based; conditions: Homo sapiens, 786-0, Kidney, BME media, 72 hours, read-out: Sensitivity to Example 1 (IC50)
Procedure: as §1, §2

Capan1 = test: Cell line sensitivity (viability, ATPlite); format: cell-based; conditions: Homo sapiens, CAPAN-1; Capan1, Pancreatic; BME media, 72 hours; read-out: Sensitivity to Example 1 (IC50)
Procedure: as §1, §2

MCF7 = test: Cell line sensitivity (viability, ATPlite); format: cell-based; conditions: Homo sapiens; MCF7, Breast; BME media, 72 hours; read-out: Sensitivity to Example 1 (IC50)
Procedure: as §1, §2

NCI-H460 = test: Cell line sensitivity (viability, ATPlite); format: cell-based; conditions: Homo sapiens; NCI-H460, Lung; BME media, 72 hours; read-out: Sensitivity to Example 1 (IC50)
Procedure: as §1, §2

MDA-MB453 = test: Cell line sensitivity (viability, ATPlite); format: cell-based; conditions: Homo sapiens, MDA-MB-453; MDA-MB453, Breast; BME media, 72 hours; read-out: Sensitivity to Example 1 (IC50)
Procedure: as §1, §2

Hs766T = test: Cell line sensitivity (viability, ATPlite); format: cell-based; conditions: Pancreatic, BME media, 72 hours, read-out: Sensitivity to Example 1 (IC50)
Procedure: as §1, §2

SW480 = test: Cell line sensitivity (viability, ATPlite); format: cell-based; conditions: Homo sapiens; SW480, Colon; BME media, 72 hours; read-out: Sensitivity to Example 1 (IC50)
Procedure: as §1, §2

SW48 = test: Cell line sensitivity (viability, ATPlite); format: cell-based; conditions: Homo sapiens; SW48, Colon; BME media, 72 hours; read-out: Sensitivity to Example 1 (IC50)
Procedure: as §1, §2

HT29 = test: Cell line sensitivity (viability, ATPlite); format: cell-based; conditions: Homo sapiens, HT-29; HT29, Colon; BME media, 72 hours; read-out: Sensitivity to Example 1 (IC50)
Procedure: as §1, §2

MDA-MB468 = test: Cell line sensitivity (viability, ATPlite); format: cell-based; conditions: Homo sapiens, MDA-MB-468; MDA-MB468, Breast; BME media, 72 hours; read-out: Sensitivity to Example 1 (IC50)
Procedure: as §1, §2

HepG2 = test: Cell line sensitivity (viability, ATPlite); format: cell-based; conditions: Homo sapiens; HepG2, Liver; BME media, 72 hours; read-out: Sensitivity to Example 1 (IC50)
Procedure: as §1, §2

HT1080 = test: Cell line sensitivity (viability, ATPlite); format: cell-based; conditions: Homo sapiens, HT-1080; HT1080, Sarcoma; BME media, 72 hours; read-out: Sensitivity to Example 1 (IC50)
Procedure: as §1, §2

A549 = test: Cell line sensitivity (viability, ATPlite); format: cell-based; conditions: Homo sapiens; A549, Lung; BME media, 72 hours; read-out: Sensitivity to Example 1 (IC50)
Procedure: as §1, §2

SW948 = test: Cell line sensitivity (viability, ATPlite); format: cell-based; conditions: Homo sapiens; SW948, Colon; BME media, 72 hours; read-out: Sensitivity to Example 1 (IC50)
Procedure: as §1, §2

HCT15 = test: Cell line sensitivity (viability, ATPlite); format: cell-based; conditions: Homo sapiens, HCT-15; HCT15, Colon; BME media, 72 hours; read-out: Sensitivity to Example 1 (IC50)
Procedure: as §1, §2

NCI-H1975 = test: Cell line sensitivity (viability, ATPlite); format: cell-based; conditions: Homo sapiens; NCI-H1975, Lung; BME media, 72 hours; read-out: Sensitivity to Example 1 (IC50)
Procedure: as §1, §2

ACHN = test: Cell line sensitivity (viability, ATPlite); format: cell-based; conditions: Homo sapiens, Kidney, BME media, 72 hours, read-out: Sensitivity to Example 1 (IC50)
Procedure: as §1, §2

AsPC1 = test: Cell line sensitivity (viability, ATPlite); format: cell-based; conditions: Homo sapiens; AsPC1, Pancreatic; BME media, 72 hours; read-out: Sensitivity to Example 1 (IC50)
Procedure: as §1, §2

H1299 = test: Cell line sensitivity (viability, ATPlite); format: cell-based; conditions: Homo sapiens, NCI-H1299; H1299, Lung; BME media, 72 hours; read-out: Sensitivity to Example 1 (IC50)
Procedure: as §1, §2

HCT116 = test: Cell line sensitivity (viability, ATPlite); format: cell-based; conditions: Homo sapiens, HCT-116; HCT116, Colon; BME media, 72 hours; read-out: Sensitivity to Example 1 (IC50)
Procedure: as §1, §2

Panc-1 = test: Cell line sensitivity (viability, ATPlite); format: cell-based; conditions: Homo sapiens; Panc-1, Pancreatic; BME media, 72 hours; read-out: Sensitivity to Example 1 (IC50)
Procedure: as §1, §2

[1] = tested on: lung carcinoma cell lines; test: Viability against a subset of lung carcinoma cell lines; format: cell-based; conditions: certain of 6 cell lines, media lacking serine, FIG. 4C; read-out: IC50, inhibition of cell proliferation
Procedure: as §1

A549 cells = test: Cell Proliferation Assay, A549; format: cell-based; conditions: Homo sapiens; A549, BME media lacking nonessential amino acids, 72 hours, ATPlite; read-out: Percent viability (EC50), Average
Procedure: Cells were seeded at 5000 cells per well (in 96-well plate) in BME media lacking nonessential amino acids+5% dialyzed serum. After 18 hours, DMSO or compound in 0.1% final concentration DMSO was added.
Percent viability (EC50) of A549 and PC3 cells was tested against certain exemplary compounds according to the above general procedures.

PKM2 = PKM2 (Homo sapiens, UniProt P14618); test: PKM2 Biochemical Assay
Sequence of PKM2 (P14618 whole entry): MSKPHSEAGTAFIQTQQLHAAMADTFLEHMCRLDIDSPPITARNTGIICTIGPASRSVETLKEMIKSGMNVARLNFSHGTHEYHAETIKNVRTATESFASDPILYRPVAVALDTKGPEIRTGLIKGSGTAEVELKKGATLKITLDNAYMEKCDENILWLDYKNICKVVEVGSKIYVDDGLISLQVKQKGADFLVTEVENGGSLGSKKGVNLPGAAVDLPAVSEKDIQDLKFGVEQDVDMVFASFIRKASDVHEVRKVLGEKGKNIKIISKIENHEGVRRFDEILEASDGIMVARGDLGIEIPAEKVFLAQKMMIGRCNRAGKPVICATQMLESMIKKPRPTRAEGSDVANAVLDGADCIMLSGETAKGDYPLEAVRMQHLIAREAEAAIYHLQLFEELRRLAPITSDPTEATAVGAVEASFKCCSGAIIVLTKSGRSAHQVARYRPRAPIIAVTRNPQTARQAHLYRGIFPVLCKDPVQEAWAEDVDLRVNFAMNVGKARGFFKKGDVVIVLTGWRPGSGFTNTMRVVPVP
Procedure: Full length, human PKM2 enzyme was obtained from Promab (Richmond, Calif.). All reagents, unless otherwise noted, were obtained from Sigma (St. Louis, Mo.).
Compounds were pre-incubated with 2 nM PKM2 in reaction buffer (50 mM Tris-HCl, pH 8.0, 200 mM KCl, 30 mM MgCl2, 2 mM DTT, 5% DMSO) for 30 min at ambient temperature. […] After 30 min, ATP formation was measured by Kinase Glo (Promega, Madison, Wis.), and AC50 values were determined using Prism (GraphPad Software, Inc., La Jolla, Calif.).

## O=C(c1cc(C(F)(F)F)n[nH]1)N(Cc1ccc(O)cc1F)CC1CCC1 [Example 1, N-(cyclobutylmethyl)-N-(2-fluoro-4-hydroxybenzyl)-3-(trifluoromethyl)-1H-pyrazole-5-carboxamide]
PSN-1
  IC50: > 30 µM
NCI-H647
  IC50: > 30 µM
786-O
  IC50: > 30 µM
Capan1
  IC50: > 30 µM
MCF7
  IC50: > 30 µM
NCI-H460
  IC50: 5 µM
MDA-MB453
  IC50: > 30 µM
Hs766T
  IC50: 300 nM
SW480
  IC50: 100 nM
SW48
  IC50: > 30 µM
HT29
  IC50: 100 nM
MDA-MB468
  IC50: > 30 µM
HepG2
  IC50: > 30 µM
HT1080
  IC50: 50 nM
A549
  IC50: 100 nM
SW948
  IC50: > 30 µM
HCT15
  IC50: > 30 µM
NCI-H1975
  IC50: 90 nM
ACHN
  IC50: 100 nM
AsPC1
  IC50: > 30 µM
H1299
  IC50: 600 nM
HCT116
  IC50: 100 nM
Panc-1
  IC50: 14 nM
[1]
  IC50: ≥ 100 nM
A549 cells
  EC50: 70 nM
PKM2; % maximum response in a biochemical assay as compared with Fructose 1,6-bisphosphate
  Max. Resp.: 100%
PKM2; read-out: % FBP (extent of maximal activation, relative to FBP)
  Emax: 104 ± 11%
PKM2; read-out: AC50 (concentration of half-maximal PKM2 activation), Table 2, n = 6 to 10
  AC50: 11 ± 4 nM
PKM2; read-out: PKM2 AC50, 2 nM PKM2, 75 μM ADP, 15 μM PEP, Kinase Glo
  AC50: 11 nM
PKM2; relative to activity in DMSO controls (normalized to 100%), FIG. 1B
  Maximal PKM2 activity: approximately 600%
